Activity calls are given as the source filed them. No cut-off for these calls is given here.
Legend:
[1] = test system: BV-2; experiment: Cytotoxicity against mouse BV-2 cells assessed as reduction in cell viability at 10 uM incubated for 24 hrs by MTT assay; format: toxicity, cell-based; details: bv-2, 24 h
[2] = test system: BV-2; experiment: Inhibition of LPS-induced NO production in mouse BV-2 cells assessed as NO production at 20 uM pre-incubated for 2 hrs followed by LPS stimulation and measured after 24 hrs by Griess reagent based method relative to control; format: functional; parameters: scale not given: the % may be the effect or the level left; details: time 26 hrs
[3] = test system: BV-2; experiment: Inhibition of LPS-induced NO production in mouse BV-2 cells at 10 uM pre-incubated for 2 hrs followed by LPS stimulation and measured after 24 hrs by Griess reagent based method; format: functional, cell-based; details: time 26.0 hrs
[4] = test system: BV-2; experiment: Inhibition of LPS-induced NO production in mouse BV-2 cells assessed as NO production at 10 uM pre-incubated for 2 hrs followed by LPS stimulation and measured after 24 hrs by Griess reagent based method relative to control; format: functional; parameters: scale not given: the % may be the effect or the level left; details: time 26 hrs

`CC(=O)O[C@H]1C[C@](C)(O)[C@]23OC(C)(C)[C@H](C[C@H](OC(=O)c4cccnc4)[C@]2(CO)[C@H]1OC(C)=O)[C@H]3OC(C)=O` was tested, and the Activity [1] was “Non-Toxic”.

`Oc1ccc(/C=C/c2cc(O)cc(O)c2)cc1` [RESVERATROL] showed an Activity [2] of 21.38%.

In the case of `C/C=C(\C)C(=O)O[C@@H]1[C@H](OC(C)=O)[C@@]2(COC(C)=O)[C@H](OC(C)=O)C(=O)[C@@H]3[C@@H](OC(C)=O)[C@@]24O[C@@]3(C)COC(=O)c2cccnc2CC[C@@](C)(OC(C)=O)C(=O)O[C@@H]1[C@]4(C)O`, the Activity [1] was “Non-Toxic” and the inhibition [3] was “Active”.

In the case of `C/C=C(\C)C(=O)O[C@H]1[C@@H]2[C@@H](OC(C)=O)[C@@]34O[C@@]2(C)COC(=O)c2cnccc2CC[C@@](C)(OC(C)=O)C(=O)O[C@@H]([C@H](OC(C)=O)[C@H](OC(C)=O)[C@@]3(COC(C)=O)[C@@H]1OC(C)=O)[C@]4(C)O`, the Activity [1] was “Non-Toxic” and the inhibition [3] was “Active”.

With `C/C=C(\C)C(=O)O[C@@H]1[C@H](OC(C)=O)[C@@]2(COC(C)=O)[C@H](OC(C)=O)C(=O)[C@@H]3[C@@H](O)[C@@]24O[C@@]3(C)COC(=O)c2cccnc2CC[C@@](C)(OC(C)=O)C(=O)O[C@@H]1[C@]4(C)O` the Activity [1] was “Non-Toxic” and the inhibition [3] was “Active”.

With `CC(=O)OC[C@]12[C@H](OC(C)=O)[C@@H](OC(C)=O)[C@@H]3[C@@H](OC(C)=O)[C@@]14O[C@@]3(C)COC(=O)c1cccnc1[C@@H](C)[C@H](C)C(=O)O[C@@H]([C@H](OC(=O)c1ccc(=O)n(C)c1)[C@@H]2OC(C)=O)[C@]4(C)O` the Activity [1] was “Toxic”.

For `C/C=C(\C)C(=O)O[C@@H]1[C@H](OC(C)=O)[C@@H]2[C@@H](OC(=O)/C(C)=C/C)[C@@]34O[C@@]2(C)COC(=O)c2cccnc2CC[C@H](C)C(=O)O[C@@H]([C@H](O)[C@H](O)[C@@]13COC(C)=O)[C@]4(C)O`, the Activity [1] was “Non-Toxic” and the inhibition [3] was “Active”.

In the case of `C/C=C(\C)C(=O)O[C@H]1C[C@@H]2[C@@H](OC(=O)c3ccccc3)[C@@]3(OC2(C)C)[C@@]1(COC(C)=O)[C@@H](OC(C)=O)[C@@H](OC(C)=O)C[C@]3(C)O`, the Activity [1] was “Non-Toxic”, the inhibition [3] was “Active” and the Activity [4] was 59.61%.

For `CC(=O)OC[C@]12[C@H](OC(C)=O)[C@@H](OC(C)=O)[C@@H]3[C@@H](OC(C)=O)[C@@]14O[C@@]3(C)COC(=O)c1cccnc1[C@@H](C)[C@H](C)C(=O)O[C@@H]([C@H](OC(C)=O)[C@@H]2OC(C)=O)[C@]4(C)O`, the Activity [1] was “Non-Toxic” and the inhibition [3] was “Active”.

`CC(=O)OC[C@]12[C@H](OC(C)=O)C(=O)[C@@H]3[C@@H](OC(C)=O)[C@@]14O[C@@]3(C)COC(=O)c1cccnc1CC[C@@](C)(OC(C)=O)C(=O)O[C@@H]([C@H](OC(=O)c1cccnc1)[C@@H]2OC(C)=O)[C@]4(C)O` was tested, and the Activity [1] was “Non-Toxic”.

With `C/C=C(\C)C(=O)O[C@@H]1[C@@H]2[C@@H](OC(C)=O)[C@@]34O[C@@]2(C)COC(=O)c2cnccc2CC[C@@](C)(OC(C)=O)C(=O)O[C@@H]([C@H](OC(=O)/C(C)=C/C)[C@H](OC(C)=O)[C@@]3(COC(C)=O)[C@@H]1OC(C)=O)[C@]4(C)O` the Activity [1] was “Non-Toxic” and the inhibition [3] was “Active”.

In the case of `C/C=C(\C)C(=O)O[C@H]1[C@@H]2[C@@H](OC(C)=O)[C@@]34O[C@@]2(C)COC(=O)c2cccnc2CC[C@@](C)(OC(C)=O)C(=O)O[C@@H]([C@H](OC(C)=O)[C@H](OC(C)=O)[C@@]3(COC(C)=O)[C@@H]1OC(C)=O)[C@]4(C)O`, the Activity [1] was “Non-Toxic” and the inhibition [3] was “Active”.

In the case of `CC(=O)OC[C@]12[C@H](OC(C)=O)C(=O)[C@@H]3[C@@H](OC(C)=O)[C@@]14O[C@@]3(C)COC(=O)c1cccnc1CC[C@@](C)(OC(C)=O)C(=O)O[C@@H]([C@H](OC(=O)c1ccccc1)[C@@H]2OC(C)=O)[C@]4(C)O`, the Activity [1] was “Non-Toxic” and the inhibition [3] was “Active”.

From ChEMBL document CHEMBL5370590, “Densely Functionalized Macrocyclic Sesquiterpene Pyridine Alkaloids from Maytenus austroyunnanensis” (J Nat Prod, 2023)
